Among the data in patent US20230165846A1, “HETEROCYCLIC GLP-1 AGONISTS” (Gasherbrum Bio, Inc., priority 2020, published 2023) are EC50 values, retold here.

Usually EC50 stands for the concentration at which the effect is half-maximal.

Test [1] has as its target T1, GLP-1 Receptor (Homo sapiens, UniProt P43220). Description: GLP-1R agonist cAMP stimulation assay, Method 2 (HDB HEK293/GLP1R/CRE-LUC, Cisbio cAMP dynamic 2 kit). The test is classed as cell-based. The note with it: HEK293/GLP1R/CRE-LUC cells (HD Biosciences); 30 min at 37° C.; 0.5 mM IBMX, 0.1% BSA; geometric mean where n>=2; read-out: GLP1R cAMP Stimulation DR: EC50 (nM) Method 2 (HDB). The method, then: Method 2: Activation of GLP-1 receptor is known to stimulate cyclic AMP (cAMP) production in cells which indicates primary coupling to the Gas subunit of the G protein heterotrimeric complex.
To optimize functional activity directed toward Gas coupling, a HEK293/CRE-Luc cell line developed by HDB stably expressing the GLP-1 Receptor was used. 200× concentration of compound working solutions were prepared (Agilent Technologies Bravo) with ½log serial dilution in 384-well Echo LDV plate (Labcyte, Cat# LP-0200). […] Seal the plate and incubate at 37° C. with 5% CO2 for 30 min.
After incubation the cAMP assay signal was generated using cAMP dynamic 2 Kit (Cisbio). 5 µL cAMP-d2 working solution was added to each well, followed with 5 µL Anti-cAMP antibody-cryptate working solution added to each well using ThermoFisher Multidrop Combi. Incubate at room temperature for 1 hour protected from light.
(§1) %Activity = 100% x (mean RLU of test sample - mean RLU of vehicle control) / (mean RLU of MAX control - mean RLU of vehicle control))
(§2) This is done to account for the lognormal distribution of multiple estimates of EC50 values. In practice geometric mean is calculated by first generating log values of EC50, averaging replicates and then calculating the antilog of the average.

Test [2] has as its target T1, GLP-1 Receptor. Description: GLP-1R agonist cAMP stimulation assay, Method 1 (DiscoverX CHO-K1, enzyme fragment complementation). The test is classed as cell-based. The settings on record: CHO-K1 cell line (DiscoverX) stably expressing GLP-1 Receptor; incubation 30 or 60 min at 37° C.; geometric mean where n>=2; read-out: GLP1R cAMP Stimulation DR: EC50 (nM) Method 1. Here is the method: Activation of GLP-1 receptor is known to stimulate cyclic AMP (cAMP) production in cells which indicates primary coupling to the Gas subunit of the G protein heterotrimeric complex.
Method 1: To optimize functional activity directed toward Gas coupling, a CHO—K1 cell line developed by DiscoverX stably expressing the GLP-1 Receptor was used. Cells expressing GLP-1 receptor were plated in a 384-well microtiter plates and incubated overnight at 37° C. with 5% CO2 to allow the cells to attach and grow. Media was then aspirated from the cells and replaced with 15 uL 2:1 Hanks Balanced Salt Solution (HBSS)/10mM Hepes : cAMP XS+ Ab reagent. Five microliters (5 uL) of previously generated compound sample stocks at 4x final concentration in assay buffer were then added to the cells and allowed to incubate at 37° C. for 30 or 60 minutes.
After incubation the assay signal was generated using enzyme fragment complementation (EFC). In EFC, the enzyme B-galactosidase is split into two complementary portions (EA and ED). The fragment ED is fused to cAMP and in the assay format competes with endogenous cAMP for binding to a cAMP specific antibody. Activated β—Gal is formed when exogenous EA fragment binds to free ED-cAMP (not bound to cAMP specific antibody). Activated enzyme levels are detected through conversion of β-gal chemiluminescent substrate which generates a detectable luminescence signal and read on standard microtiter plate.
The methodology for detection of cAMP using EFC requires incubation with 20uL of cAMP XS+ ED/CL lysis cocktail for one hour followed by incubation with 20 uL cAMP XS+ EA reagent for three hours at room temperature. Microplates were read following signal generation with a PerkinElmer Envision instrument utilizing chemiluminescent signal detection. Compound activity was analyzed using CBIS data analysis suite (ChemInnovation, CA). Percentage activity was calculated using the following formula:
as §1, §2

T1 sequence (P43220 24-463): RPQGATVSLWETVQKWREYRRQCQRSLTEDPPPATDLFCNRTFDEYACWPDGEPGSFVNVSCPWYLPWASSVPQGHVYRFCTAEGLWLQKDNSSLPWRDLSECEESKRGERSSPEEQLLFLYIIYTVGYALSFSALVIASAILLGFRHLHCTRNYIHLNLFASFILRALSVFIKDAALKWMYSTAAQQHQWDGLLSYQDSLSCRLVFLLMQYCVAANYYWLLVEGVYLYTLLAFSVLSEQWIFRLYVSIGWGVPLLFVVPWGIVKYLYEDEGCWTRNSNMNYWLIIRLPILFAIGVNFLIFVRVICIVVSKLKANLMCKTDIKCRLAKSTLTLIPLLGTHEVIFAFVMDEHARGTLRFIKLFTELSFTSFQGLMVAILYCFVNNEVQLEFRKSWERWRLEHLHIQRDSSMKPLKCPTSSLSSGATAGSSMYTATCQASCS

Take `N#Cc1ccc(COc2cccc(C3=CCC(Cc4nc5ccc(C(=O)O)nc5n4C[C@@H]4CCO4)CC3)n2)c(F)c1` (stereo partly drawn) [Compound 101a, 2-((4-(6-((4-cyano-2-fluorobenzyl)oxy)pyridin-2-yl)cyclohex-3-en-1-yl)methyl)-3-(((S)-oxetan-2-yl)methyl)-3H-imidazo[4,5-b]pyridine-5-carboxylic acid]: the EC50 at GLP-1 Receptor [1] was 0.019 nM; at GLP-1 Receptor [2], below 0.051 nM.
For `O=C(O)c1ccc2nc(Cc3ccc(-c4nccc(OCc5ccc(Cl)cc5F)n4)cc3)n(C[C@@H]3CCO3)c2n1` [Compound 101aw, (S)-2-(4-(4-((4-chloro-2-fluorobenzyl)oxy)pyrimidin-2-yl)benzyl)-3-(oxetan-2-ylmethyl)-3H-imidazo[4,5-b]pyridine-5-carboxylic acid] the same measures were 0.097 nM and 0.069 nM.
In the case of `O=C(O)c1ccc2nc(CC3CC=C(c4cccc(OCc5ccc(Cl)cc5F)n4)CC3)n(C[C@@H]3CCO3)c2n1` (stereo partly drawn) [Compound 102a, 2-((4-(6-((4-chloro-2-fluorobenzyl)oxy)pyridin-2-yl)cyclohex-3-en-1-yl)methyl)-3-(((S)-oxetan-2-yl)methyl)-3H-imidazo[4,5-b]pyridine-5-carboxylic acid], the EC50 came out at 0.0096 nM at GLP-1 Receptor [1] and 0.016 nM on GLP-1 Receptor [2].
For `O=C(O)c1ccc2nc(Cc3ccc(-c4nccc(OCc5ccccc5)n4)cc3)n(C[C@@H]3CCO3)c2n1` [Compound 102aw, 2-[[4-(4-benzyloxypyrimidin-2-yl)phenyl]methyl]-3-[[(2S)-oxetan-2-yl]methyl]imidazo[4,5-b]pyridine-5-carboxylic acid] the same measures were 1.9 nM and 2.2 nM.
For `O=C(O)c1ccc2nc(CC3CC=C(c4nccc(OCc5ccc(Cl)cc5F)n4)CC3)n(C[C@@H]3CCO3)c2n1` (stereo partly drawn) [Compound 103a, 2-((4-(4-((4-chloro-2-fluorobenzyl)oxy)pyrimidin-2-yl)cyclohex-3-en-1-yl)methyl)-3-(((S)-oxetan-2-yl)methyl)-3H-imidazo[4,5-b]pyridine-5-carboxylic acid] the same measures were 0.095 nM and 0.073 nM.
For the molecule `O=C(O)c1ccc2nc(Cn3ccc(-c4cccc(OCc5ccc(Cl)cc5F)n4)cc3=O)n(C[C@@H]3CCO3)c2n1` [Compound 103aw, (S)-2-((6-((4-chloro-2-fluorobenzyl)oxy)-2′-oxo-[2,4′-bipyridin]-1′(2′H)-yl)methyl)-3-(oxetan-2-ylmethyl)-3H-imidazo[4,5-b]pyridine-5-carboxylic acid], the figures for the EC50 at GLP-1 Receptor [1] and at GLP-1 Receptor [2] were 0.89 nM and 0.38 nM, respectively.
For `O=C(O)c1ccc2nc(CC3CC=C(c4ccnc(OCc5ccc(Cl)cc5F)n4)CC3)n(C[C@@H]3CCO3)c2n1` (stereo partly drawn) [Compound 104a, 2-((4-(2-((4-chloro-2-fluorobenzyl)oxy)pyrimidin-4-yl)cyclohex-3-en-1-yl)methyl)-3-(((S)-oxetan-2-yl)methyl)-3H-imidazo[4,5-b]pyridine-5-carboxylic acid] the same measures were 0.12 nM and 0.114 nM.
As for `Cc1cn(Cc2nc3ccc(C(=O)O)nc3n2C[C@@H]2CCO2)c(=O)cc1-c1cccc(OCc2ccc(Cl)cc2F)n1` [Compound 104aw, (S)-2-((6-((4-chloro-2-fluorobenzyl)oxy)-5′-methyl-2′-oxo-[2,4′-bipyridin]-1′(2′H)-yl)methyl)-3-(oxetan-2-ylmethyl)-3H-imidazo[4,5-b]pyridine-5-carboxylic acid], the EC50 turned out to be 0.13 nM on GLP-1 Receptor [1] and 0.17 nM on GLP-1 Receptor [2].
The corresponding values for `N#Cc1ccc(COc2nccc(C3=CCC(Cc4nc5ccc(C(=O)O)nc5n4C[C@@H]4CCO4)CC3)n2)c(F)c1` (stereo partly drawn) [Compound 105a, 2-((4-(2-((4-cyano-2-fluorobenzyl)oxy)pyrimidin-4-yl)cyclohex-3-en-1-yl)methyl)-3-(((S)-oxetan-2-yl)methyl)-3H-imidazo[4,5-b]pyridine-5-carboxylic acid] are 0.089 nM and 0.12 nM.
For `Cc1c(-c2cccc(OCc3ccc(Cl)cc3F)n2)ccn(Cc2nc3ccc(C(=O)O)nc3n2C[C@@H]2CCO2)c1=O` [Compound 105aw, (S)-2-((6-((4-chloro-2-fluorobenzyl)oxy)-3′-methyl-2′-oxo-[2,4′-bipyridin]-1′(2′H)-yl)methyl)-3-(oxetan-2-ylmethyl)-3H-imidazo[4,5-b]pyridine-5-carboxylic acid] the same measures were 7.1 nM and 11 nM.
For `N#Cc1ccc(COc2cccc(-c3ccn(Cc4nc5ccc(C(=O)O)nc5n4C[C@@H]4CCO4)c(=O)c3)n2)c(F)c1` [Compound 106aw, (S)-2-((6-((4-cyano-2-fluorobenzyl)oxy)-2′-oxo-[2,4′-bipyridin] -1′(2′H)-yl)methyl)-3-(oxetan-2-ylmethyl)-3H-imidazo[4,5-b]pyridine-5-carboxylic acid] the same measures were 4.1 nM and 1.3 nM.
As for `O=C(O)c1ccc2nc(Cn3ccc(-c4cccc(OCc5ccc(Cl)cc5F)n4)cc3=O)n(C[C@@H]3CCO3)c2c1` [Compound 107aw, 2-[[4-[6-[(4-chloro-2-fluorophenyl)methoxy]-2-pyridyl]-2-oxo-1-pyridyl]methyl]-3-[[(2S)-oxetan-2-yl]methyl]benzimidazole-5-carboxylic acid], the EC50 at GLP-1 Receptor [1] was 0.19 nM; on GLP-1 Receptor [2], 0.28 nM.
As for `O=C(O)c1ccc2nc(Cn3ccc(-c4cccc(OCc5ccc(Cl)cc5F)c4)cc3=O)n(C[C@@H]3CCO3)c2n1` [Compound 108aw, 2-[[4-[3-[(4-chloro-2-fluoro-phenyl)methoxy]phenyl]-2-oxo-1-pyridyl]methyl]-3-[[(2S)-oxetan-2-yl]methyl]-imidazo[4,5-b]pyridine-5-carboxylic acid], the EC50 on GLP-1 Receptor [1] came to 5.7 nM; at GLP-1 Receptor [2] it was 5.9 nM.
For `O=C(O)c1ccc2nc(COc3cc(-c4cccc(OCc5ccc(Cl)cc5F)n4)c(F)cn3)n(C[C@@H]3CCO3)c2n1` [Compound 109aw, (S)-2-(((6-((4-chloro-2-fluorobenzyl)oxy)-5′-fluoro-[2,4′-bipyridin]-2′-yl)oxy)methyl)-3-(oxetan-2-ylmethyl)-3H-imidazo[4,5-b]pyridine-5-carboxylic acid] the same measures were 10 nM and 4.8 nM.
As for `O=C(O)c1ccc2nc(CN3CC=C(c4cccc(OCc5ccc(Cl)cc5F)n4)CC3)n(C[C@@H]3CCO3)c2n1` [Compound 110a, (S)-2-((6-((4-chloro-2-fluorobenzyl)oxy)-3′,6′-dihydro-[2,4′-bipyridin]-1′(2′H)-yl)methyl)-3-(oxetan-2-ylmethyl)-3H-imidazo[4,5-b]pyridine-5-carboxylic acid], the EC50 was 0.0074 nM on GLP-1 Receptor [1] and below 0.051 nM at GLP-1 Receptor [2].
The corresponding values for `O=C(O)c1ccc2nc(COc3cc(-c4cccc(OCc5ccc(Cl)cc5F)c4)ccn3)n(C[C@@H]3CCO3)c2n1` [Compound 110aw, 2-[[4-[3-[(4-chloro-2-fluoro-phenyl)methoxy]phenyl]-2-pyridyl]oxymethyl]-3-[[(2S)-oxetan-2-yl]methyl]imidazo[4,5-b]pyridine-5-carboxylic acid] are 88 nM and 43 nM.
For `O=C(O)c1ccc2nc(CN3CC=C(c4csc(OCc5ccc(Cl)cc5F)n4)CC3)n(C[C@@H]3CCO3)c2n1` [Compound 111a] the same measures were 0.073 nM and 0.18 nM.
For `N#Cc1ccc(COc2nc(C3=CCN(Cc4nc5ccc(C(=O)O)nc5n4C[C@@H]4CCO4)CC3)cs2)c(F)c1` [Compound 112a, (S)-2-((4-(2-((4-cyano-2-fluorobenzyl)oxy)thiazol-4-yl)-3,6-dihydropyridin-1 (2H)-yl)methyl)-3-(oxetan-2-ylmethyl)-3H-imidazo[4,5-b]pyridine-5-carboxylic acid] the same measures were 0.17 nM and 0.26 nM.
